In patent US20220265629A1, “TREATMENT OF SYSTOLIC DYSFUNCTION AND HEART FAILURE WITH REDUCED EJECTION FRACTION WITH THE COMPOUND (R)-4-(1-((3-(DIFLUOROMETHYL)-1-METHYL-1H-PYRAZOL-4-YL)SULFONYL)-1-FLUOROETHYL)-N-(ISOXAZOL-3-YL)PIPERIDINE-1-CARBOXAMIDE” (MyoKardia, Inc., priority 2019, published 2022):
Where two headings read alike, the source gives them in different places.

Experiment: Single ascending oral dose study in healthy volunteers: plasma pharmacokinetics
Type: in vivo, human
Settings: for Plasma concentration, Mean / concentration at 6 h: 6 Hours Postdose; for concentration at 6 h / concentration at 12 h / concentration at 24 h / concentration at 48 h / concentration at 72 h / AUC(0-t) / AUC(0-inf) / Cmax / half-life / MRT / Tmax / Vd/F: human, plasma, oral; for concentration at 12 h: 12 Hours Postdose; for concentration at 24 h: 24 Hours Postdose; for concentration at 48 h: 48 Hours Postdose; for concentration at 72 h: 72 Hours Postdose
Source text: This example describes the first-in-human study of Compound I. Based on its mechanism of action, Compound I may offer a targeted therapy for patients with DCM caused by genetic or nongenetic mechanisms. The study was a randomized, double-blind, placebo-controlled, sequential group, single-ascending (oral) close study in healthy subjects aged 18-55 years. Eight dosing cohorts, each comprising eight healthy subjects, were enrolled. Within each cohort, subjects were randomized 6:2 to Compound I:placebo.
Subjects were resident at the clinical site for up to 5 days and 4 nights, from Day −1 (the day before dosing) to Day 4, and received a single dose of Compound I or placebo on Day 1. ECG telemetry was initiated 1 hour preclose and continued through 48 hours postclose (Day 3). Any subject with a preclose resting HR≥80 beats per minute was considered ineligible and not treated. […] Subjects returned for a safety follow-up visit 7 days (±1 day) after dosing.
All randomized study subjects received either Compound I or matching placebo as a single oral dose after a fasting period of at least 6 hours. Compound I drug substance is a crystalline, free-base, synthetic molecule with a molecular weight of 435.4 g/mol.
Compound I was provided as a powder for oral suspension. Placebo was provided as calcium carbonate powder. Both treatments were closed orally as a suspension. The suspension was made using Ora-Plus® suspending vehicle (Perrigo) and a cherry syrup flavoring vehicle (Humco), mixed 50% to 50%. The suspension was followed by approximately 100 mL water. The suspension was made up within 14 days from the time in which it was closed which was consistent with the stability data on the suspension. The suspension was made up so the volume administered to the subjects who received Compound I was the same at 20 mL.
Each subject received a close according to the cohort in which they were enrolled. Cohorts were enrolled sequentially, with each cohort receiving an escalated dose of Compound I. The closes administered were 3 mg, 10 mg, 25 mg, 50 mg, 100 mg, 175 mg, 350 mg, and 525 mg, respectively.
The concentrations of Compound I in human plasma and urine were quantitated by high performance liquid chromatography with tandem mass spectrometric detection (LC MS/MS) (Biological sample analysis study report Alturas AD17-726). Plasma samples were extracted by protein precipitation with acetonitrile containing internal standard MYK-5654. The calibration curves were linear over concentration range of 0.500 to 1000 ng/mL with a lower limit of quantification (LLOQ) of 0.500 ng/mL.
The PK Population included all subjects who received Compound I. Blood samples were collected for PK assessments. The actual timing of the samples may have been modified and/or up to an additional 2 samples may have been requested by the SRC after review of the data from previous cohorts. It was important that PK sampling occurred as closely as possible to the scheduled time (±10%). Both blood and urine samples were used for PK assessments.
In addition, for subjects who received placebo, a single plasma sample near the predicted tmax of Compound I was evaluated to confirm the lack of circulating Compound I. Plasma concentration data for Compound I was summarized using descriptive statistics, including mean, standard deviation (SD), median, minimum, and maximum values, and percent coefficient of variation. Other PK parameters included (but were not limited to) Cmax, tmax, AUC, t1/2, and MRT. Additionally, the apparent terminal-phase terminal half-life was calculated. The close proportionality of AUC and Cmax was explored.

[1] = 3 mg, 3 mg, read-out: Plasma concentration, Geometric Mean
[2] = 3 mg, 3 mg, read-out: Plasma concentration, Mean
[3] = 3 mg, 3 mg, read-out: Plasma concentration, Median
[4] = 10 mg, 10 mg, read-out: Plasma concentration, Geometric Mean
[5] = 10 mg, 10 mg, read-out: Plasma concentration, Mean
[6] = 10 mg, 10 mg, read-out: Plasma concentration, Median

SMILES: Cn1cc(S(=O)(=O)[C@@](C)(F)C2CCN(C(=O)Nc3ccon3)CC2)c(C(F)F)n1 [Compound I, (R)-4-(1-((3-(difluoromethyl)-1-methyl-1H-pyrazol-4-yl)sulfonyl)-1-fluoroethyl)-N-(isoxazol-3-yl)piperidine-1-carboxamide]
- CL/F, Geometric Mean (3 mg): 4.15 L/h
- CL/F, Mean (3 mg): 4.26 L/h
- CL/F, Median (3 mg): 4.22 L/h
- Extrapolation, Geometric Mean (3 mg): 2.71%
- Extrapolation, Mean (3 mg): 2.78%
- Extrapolation, Median (3 mg): 2.82%
- CL/F, Geometric Mean (10 mg): 2.99 L/h
- CL/F, Mean (10 mg): 3.06 L/h
- CL/F, Median (10 mg): 2.88 L/h
- Extrapolation, Geometric Mean (10 mg): 1.59%
- Extrapolation, Mean (10 mg): 1.90%
- Extrapolation, Median (10 mg): 2.24%
- CL/F, Geometric Mean (25 mg): 3.55 L/h
- CL/F, Mean (25 mg): 3.69 L/h
- CL/F, Median (25 mg): 3.32 L/h
- Extrapolation, Geometric Mean (25 mg): 1.45%
- Extrapolation, Mean (25 mg): 1.72%
- Extrapolation, Median (25 mg): 1.92%
- CL/F, Geometric Mean (50 mg): 4.47 L/h
- CL/F, Mean (50 mg): 4.53 L/h
- CL/F, Median (50 mg): 4.46 L/h
- Extrapolation, Geometric Mean (50 mg): 0.46%
- Extrapolation, Mean (50 mg): 0.91%
- Extrapolation, Median (50 mg): 0.46%
- CL/F, Geometric Mean (100 mg): 4.69 L/h
- CL/F, Mean (100 mg): 4.76 L/h
- CL/F, Median (100 mg): 5.33 L/h
- Extrapolation, Geometric Mean (100 mg): 0.36%
- Extrapolation, Mean (100 mg): 5.48%
- Extrapolation, Median (100 mg): 0.14%
- CL/F, Geometric Mean (175 mg): 4.57 L/h
- CL/F, Mean (175 mg): 4.66 L/h
- CL/F, Median (175 mg): 4.45 L/h
- Extrapolation, Geometric Mean (175 mg): 0.14%
- Extrapolation, Mean (175 mg): 0.17%
- Extrapolation, Median (175 mg): 0.16%
- CL/F, Geometric Mean (350 mg): 4.75 L/h
- CL/F, Mean (350 mg): 4.95 L/h
- CL/F, Median (350 mg): 4.75 L/h
- Extrapolation, Geometric Mean (350 mg): 0.37%
- Extrapolation, Mean (350 mg): 0.60%
- Extrapolation, Median (350 mg): 0.43%
- AUC0-∞, Mean (350 mg + 525 mg): 74358.88 ng·h/mL
- CL/F, Geometric Mean (350 mg + 525 mg): 6.04 L/h
- CL/F, Mean (350 mg + 525 mg): 6.51 L/h
- CL/F, Median (350 mg + 525 mg): 6.10 L/h
- Extrapolation, Geometric Mean (350 mg + 525 mg): 0.29%
- Extrapolation, Mean (350 mg + 525 mg): 0.59%
- Extrapolation, Median (350 mg + 525 mg): 0.32%
- Tmax, Mean (350 mg + 525 mg): 4.96 h
- CL/F, Geometric Mean (525 mg): 7.66 L/h
- CL/F, Mean (525 mg): 8.07 L/h
- CL/F, Median (525 mg): 7.64 L/h
- Extrapolation, Geometric Mean (525 mg): 0.22%
- Extrapolation, Mean (525 mg): 0.59%
- Extrapolation, Median (525 mg): 0.23%
- Plasma concentration, Mean (350 mg): 2660.000 ng/mL
- Plasma concentration, Mean (350 mg + 525 mg): 2437.500 ng/mL
- Plasma concentration, Mean (525 mg): 2215.000 ng/mL
- dose proportionality, power model slope (all dose groups, 95% CI 0.8358-0.9417): 0.8888
- concentration at 6 h [1]: 35.2 ng/mL
- concentration at 6 h [2]: 35.8 ng/mL
- concentration at 6 h [3]: 33.5 ng/mL
- concentration at 12 h [1]: 21.5 ng/mL
- concentration at 12 h [2]: 21.9 ng/mL
- concentration at 12 h [3]: 21.7 ng/mL
- concentration at 24 h [1]: 11 ng/mL
- concentration at 24 h [2]: 11.3 ng/mL
- concentration at 24 h [3]: 10.8 ng/mL
- concentration at 48 h [1]: 2.29 ng/mL
- concentration at 48 h [2]: 2.7 ng/mL
- concentration at 48 h [3]: 2.34 ng/mL
- concentration at 72 h [2]: 0.586 ng/mL
- concentration at 72 h [3]: 0.449 ng/mL
- AUC(0-t) (3 mg, read-out: AUC0-24, Geometric Mean): 514 ng·h/mL
- AUC(0-t) (3 mg, read-out: AUC0-24, Mean): 521 ng·h/mL
- AUC(0-t) (3 mg, read-out: AUC0-24, Median): 504 ng·h/mL
- AUC(0-t) (3 mg, read-out: AUC0-48, Geometric Mean): 676 ng·h/mL
- AUC(0-t) (3 mg, read-out: AUC0-48, Mean): 689 ng·h/mL
- AUC(0-t) (3 mg, read-out: AUC0-48, Median): 678 ng·h/mL
- AUC(0-t) (3 mg, read-out: AUC0-last, Geometric Mean): 702 ng·h/mL
- AUC(0-t) (3 mg, read-out: AUC0-last, Mean): 721 ng·h/mL
- AUC(0-t) (3 mg, read-out: AUC0-last, Median): 713 ng·h/mL
- AUC(0-inf) (3 mg, read-out: AUC0-∞, Geometric Mean): 722 ng·h/mL
- AUC(0-inf) (3 mg, read-out: AUC0-∞, Mean): 741 ng·h/mL
- AUC(0-inf) (3 mg, read-out: AUC0-∞, Median): 730 ng·h/mL
- Cmax (3 mg, read-out: Cmax, Geometric Mean): 37.6 ng/mL
- Cmax (3 mg, read-out: Cmax, Mean): 38.2 ng/mL
- Cmax (3 mg, read-out: Cmax, Median): 36.5 ng/mL
- half-life (3 mg, read-out: Half-Life Lambda Z, Geometric Mean (converted)): 666 min
- half-life (3 mg, read-out: Half-Life Lambda Z, Mean (converted)): 679 min
- half-life (3 mg, read-out: Half-Life Lambda Z, Median (converted)): 671 min
- MRT (3 mg, read-out: Mean Residence Time, Geometric Mean): 17.3 h
- MRT (3 mg, read-out: Mean Residence Time, Mean): 17.5 h
- MRT (3 mg, read-out: Mean Residence Time, Median): 16.8 h
- Tmax (3 mg, read-out: Tmax, Geometric Mean): 4.33 h
- Tmax (3 mg, read-out: Tmax, Mean): 4.46 h
- Tmax (3 mg, read-out: Tmax, Median): 4 h
- Vd/F (3 mg, read-out: Vz/F, Geometric Mean): 66.5 L
- Vd/F (3 mg, read-out: Vz/F, Mean): 66.9 L
- Vd/F (3 mg, read-out: Vz/F, Median): 65.4 L
- concentration at 6 h [4]: 129 ng/mL
- concentration at 6 h [5]: 131 ng/mL
- concentration at 6 h [6]: 137 ng/mL
- concentration at 12 h [4]: 92.8 ng/mL
- concentration at 12 h [5]: 94.2 ng/mL
- concentration at 12 h [6]: 97.8 ng/mL
- concentration at 24 h [4]: 56.3 ng/mL
- concentration at 24 h [5]: 57.8 ng/mL
- concentration at 24 h [6]: 61.5 ng/mL
- concentration at 48 h [4]: 15.8 ng/mL
- concentration at 48 h [5]: 16.4 ng/mL
